Results from patent US9284283B2, “Macrocyclic compounds for modulating IL-17” (ENSEMBLE THERAPEUTICS CORPORATION, priority 2012, dated 2016).

Molecular target: T1, biotinylated human IL-17 (binding to IL17R/Fc) (Homo sapiens, UniProt Q16552)
T1 construct: purchased R&D Systems 317-ILB (IL-17, biotinylated); 177-IR (IL17R/Fc)
T1 sequence (Q16552 20-155 limits assumed): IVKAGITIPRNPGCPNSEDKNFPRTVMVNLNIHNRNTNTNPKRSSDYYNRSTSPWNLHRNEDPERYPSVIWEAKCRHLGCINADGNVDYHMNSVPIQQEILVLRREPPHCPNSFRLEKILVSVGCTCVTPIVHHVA
Test: IL-17 competition ELISA II (captured IL17R/Fc, biotinylated IL-17)
Procedure: In this version, a high binding 96-well plate (Costar #9018) was coated with 20 nM of goat anti-human IgG (KPL 01-10-02) in PBS, 100 μL/well, for 30 min at 37° C. followed by 5 min at 4° C. The plate was then washed in PBST (PBS/0.05% Tween-20) on a plate washer, (BioTek ELx450) then blocked with protein-free blocking buffer (Thermo Scientific #37573) in 250 μL/well for 30 min on a shaker at room temperature, and then washed again. IL17R/Fc (R&D Systems #177-IR; 10 nM in PBST, 100 μL/well) was then added to all wells. The plate was then incubated for 30 minutes at room temperature on the shaker.
While the receptor capture step was underway, compound dilutions were prepared in PBST to a concentration of 1 μM in 1.5 mL tubes. After the receptor capture step, the plate was washed and 50 μL PBST was added to the wells in row B down to row H. Then, 62.5 μL of the 1 μM compound dilutions were added to the wells of row A. From row A, 12.5 μL of the compound solution was removed and added to row B with mixing and this process of 5-fold dilutions was continued, by row, to row G. One of the wells in row A received only PBST (62.5 μL) and this dilution series served as the no competitor control. Then, going up from row G to row A, 50 μL of b-IL-17 (biotinylated human IL-17, R&D Systems #317-ILB; 20 nM) was added to all wells. Row H received 50 μL of PBST and served as the blank row, i.e., no compound and no b-IL-17. The plate was then incubated for 30 minutes at room temperature on the shaker.
After the wash, 100 μL Streptavidin-Horseradish Peroxidase (SA-HRP) (KPL #14-30-00) at 25 ng/mL in PBST was added to each well in the plate and the plate incubated for 30 minutes at room temperature followed by wash and 100 μL SureBlue™ TMB (KPL #52-00-03). After sufficient color development (approx 3-6 minutes), the reaction was fixed by the addition of 100 μL/well 0.5 N HCl and absorbance was measured at 450 nm on a BioTek Synergy 2 plate reader. The absorbances of ‘no competitor’ control and blank control should not exceed 1.5 A.U. and 0.06 A.U., respectively.
Data was processed using BioAssay Enterprise v10.1.4 (CambridgeSoft) software. Linear OD λ450 were plotted against log concentration (x) and fitted to a 4-parameter logistic equation. IC50 was calculated using positive ‘no competitor’ control data as an upper limit and blank control as a lower limit in each assay.

Row | SMILES | IC50 [nM]
1 | O=C1CC2(CCCC2)CC(=O)N[C@H](Cc2ccc(NC(=O)[C@H](Cc3ccccc3Cl)NC(=O)Cc3ccccc3)cc2)C(=O)NC/C=C/CCCCCN1 [Compound 283] | 100 to 1000
2 | O=C1CC2(CCCC2)CC(=O)N[C@H](Cc2ccc(NC(=O)[C@@H](NC(=O)Cc3ccccc3)C3CCCCC3)cc2)C(=O)NCCCCCCCCCN1 [Compound 350] | 100 to 1000
3 | CN1CCCCCNC(=O)CC2(CCCC2)CC(=O)N(C)[C@H](Cc2ccc(N(C)C(=O)[C@H](Cc3ccccc3Cl)N(C)C(=O)Cc3ccccc3)cc2)C(=O)N(C)CC1=O [Compound 363] | 100 to 1000
4 | O=C1CC2(CCCC2)CC(=O)N[C@H](Cc2ccc(NC(=O)[C@H](Cc3ccccc3Cl)NC(=O)Cc3ccc(CO)cc3)cc2)C(=O)NC/C=C/CCCCCN1 [Compound 365] | < 100
5 | O=C1CC2(CCCC2)CC(=O)N[C@H](Cc2ccc(NC(=O)[C@H](Cc3ccccc3Cl)NC(=O)c3ccccc3)cc2)C(=O)NCCCCCCCCN1 [Compound 366] | 100 to 1000
6 | CN1CCNC(=O)CC2(CCCC2)CC(=O)N(C)[C@H](Cc2ccc(NC(=O)[C@H](Cc3ccccc3)N(C)C(=O)c3ccccc3)cc2)C(=O)N2CCC[C@H]2C(=O)NCC1 [Compound 371] | 1000 to 10000
7 | CN1CCCCCNC(=O)[C@@H]2CCCN2C(=O)[C@@H](Cc2ccc(NC(=O)[C@H](Cc3ccccc3)N(C)C(=O)c3ccccc3)cc2)N(C)C(=O)CC2(CCCC2)CC1=O [Compound 383] | 1000 to 10000
8 | CN1CCCCCN(C)C(=O)CC2(CCCC2)CC(=O)N[C@H](Cc2ccc(NC(=O)[C@H](Cc3ccccc3Cl)NC(=O)Cc3ccccc3)cc2)C(=O)NCC1=O [Compound 387] | < 100
9 | O=C1CC2(CCCC2)CC(=O)N[C@H](Cc2ccc(NC(=O)[C@H](Cc3ccccc3Cl)NC(=O)Cc3ccccc3)cc2)C(=O)NCCCCN1 [Compound 391] | < 100
10 | O=C1CC2(CCCC2)CC(=O)N[C@H](Cc2ccc(NC(=O)[C@H](Cc3ccccc3Cl)NC(=O)Cc3ccccc3)cc2)C(=O)NCCCCCN1 [Compound 392] | < 100
11 | O=C1CC2(CCCC2)CC(=O)N[C@H](Cc2ccc(NC(=O)[C@H](Cc3ccccc3Cl)NC(=O)Cc3ccc(CO)cc3)cc2)C(=O)NCCCCN1 [Compound 393] | < 100
12 | O=C1CC2(CCCC2)CC(=O)N[C@H](Cc2ccc(NC(=O)[C@H](Cc3ccccc3Cl)NC(=O)Cc3ccc(CO)cc3)cc2)C(=O)NCCCCCN1 [Compound 394] | < 100
13 | O=C1CNC(=O)[C@@H](Cc2ccc(NC(=O)[C@@H](NC(=O)CC3CCCCC3)C3CCCCC3)cc2)NC(=O)CC2(CCCC2)CC(=O)NCCCCCN1 [Compound 395] | < 100
14 | O=C1CNC(=O)[C@@H](Cc2ccc(NC(=O)[C@@H](NC(=O)c3ccc(Cl)cc3)C3CCCCC3)cc2)NC(=O)CC2(CCCC2)CC(=O)NCCCCCN1 [Compound 396] | < 100
15 | O=C1CC2(CCCC2)CC(=O)N[C@H](Cc2ccc(NC(=O)[C@H](Cc3ccccc3Cl)NC(=O)Cc3ccccc3)cc2)C(=O)NCCOCCN1 [Compound 397] | < 100
16 | O=C1CC2(CCCC2)CC(=O)N[C@H](Cc2ccc(NC(=O)[C@H](Cc3ccccc3Cl)NC(=O)Cc3ccccc3)cc2)C(=O)NCCCN1 [Compound 398] | < 100
17 | O=C1CC2(CCCC2)CC(=O)N[C@H](Cc2ccc(NC(=O)[C@H](Cc3ccccc3Cl)NC(=O)Cc3ccc(CO)cc3)cc2)C(=O)NCCOCCN1 [Compound 400] | < 100
18 | O=C1CC2(CCCC2)CC(=O)N[C@H](Cc2ccc(NC(=O)[C@H](Cc3ccccc3Cl)NC(=O)Cc3ccc(CO)cc3)cc2)C(=O)NCCCN1 [Compound 401] | < 100
19 | CN1CCNC(=O)CC2(CCCC2)CC(=O)N[C@H](Cc2ccc(NC(=O)[C@H](Cc3ccccc3Cl)NC(=O)Cc3ccc(CO)cc3)cc2)C(=O)NCC1 [Compound 402] | < 100

Row | SMILES | IC50 [nM]
20 | O=C1CNC(=O)[C@@H](Cc2ccc(NC(=O)[C@@H](NC(=O)c3ccc(F)cc3)C3CCCCC3)cc2)NC(=O)CC2(CCCC2)CC(=O)NCCCCCN1 [Compound 403] | < 100
21 | O=C1CNC(=O)[C@@H](Cc2ccc(NC(=O)[C@@H](NC(=O)Cc3c(F)cc(F)cc3F)C3CCCCC3)cc2)NC(=O)CC2(CCCC2)CC(=O)NCCCCCN1 [Compound 404] | < 100
22 | O=C1CC2(CCCC2)CC(=O)N[C@H](Cc2ccc(NC(=O)[C@@H](NC(=O)c3cccnc3)C3CCCCC3)cc2)C(=O)NCCCCCCCCCN1 [Compound 407] | 100 to 1000
23 | O=C1CC2(CCCC2)CC(=O)N[C@H](Cc2ccc(NC(=O)[C@@H](NC(=O)c3cccnc3)C3CCCCC3)cc2)C(=O)NCCCCN1 [Compound 409] | 100 to 1000
24 | O=C1CC2(CCCC2)CC(=O)N[C@H](Cc2ccc(NC(=O)[C@@H](NC(=O)Cc3ccc(F)cc3)C3CCCCC3)cc2)C(=O)NCCCCN1 [Compound 410] | 100 to 1000
25 | O=C1CC2(CCCC2)CC(=O)N[C@H](Cc2ccc(NC(=O)[C@H](Cc3ccccc3Cl)NC(=O)Cc3ccccc3)cc2)C(=O)NCCNCCN1 [Compound 411] | < 100
26 | O=C1CC2(CCCC2)CC(=O)N[C@H](Cc2ccc(NC(=O)[C@H](Cc3ccccc3Cl)NC(=O)Cc3ccc(CO)cc3)cc2)C(=O)NCCNCCN1 [Compound 412] | 100 to 1000
27 | O=C1CNC(=O)[C@@H](Cc2ccc(NC(=O)[C@@H](NC(=O)Cc3ccccc3)c3ccccc3)cc2)NC(=O)CC2(CCCC2)CC(=O)NCCCCCN1 [Compound 415] | 100 to 1000
28 | CN1CCNC(=O)CC2(CCCC2)CC(=O)N[C@H](Cc2ccc(NC(=O)[C@H](Cc3ccccc3Cl)NC(=O)Cc3ccccc3)cc2)C(=O)N[C@H](Cc2ccccc2)C(=O)N(C)CC1 [Compound 416] | < 100
29 | O=C1CC2(CCCC2)CC(=O)N[C@H](Cc2ccc(NC(=O)[C@@H](NC(=O)c3cccnc3)C3CCCCC3)cc2)C(=O)NCCOCCOCCN1 [Compound 417] | 100 to 1000
30 | O=C1CC2(CCCC2)CC(=O)N[C@H](Cc2ccc(NC(=O)[C@H](Cc3ccccc3Cl)NC(=O)c3cccnc3)cc2)C(=O)NCCCCN1 [Compound 420] | 100 to 1000
31 | CN1CCCCCNC(=O)C(Cc2ccc(NC(=O)C(NC(=O)c3cccnc3)C3CCCCC3)cc2)NC(=O)CC2(CCCC2)CC1=O (centres unmarked) [Compound 421] | 1000 to 10000
32 | CN1CCCCCNC(=O)CC2(CCCC2)CC(=O)NC(Cc2ccc(NC(=O)C(NC(=O)c3cccnc3)C3CCCCC3)cc2)C1=O (centres unmarked) [Compound 422] | 1000 to 10000
33 | O=C1CC2(CCCC2)CC(=O)OCCCCCNC(=O)[C@@H](Cc2ccc(NC(=O)[C@@H](NC(=O)c3cccnc3)C3CCCCC3)cc2)N1 [Compound 423] | 1000 to 10000
34 | CN1CCNCCOC(=O)CC2(CCCC2)CC(=O)N(C)[C@H](Cc2ccc(NC(=O)[C@H](Cc3ccccc3Cl)NC(=O)Cc3ccccc3)cc2)C(=O)N[C@H](Cc2ccccc2)C1=O [Compound 426] | 100 to 1000
35 | C[C@H]1NC(=O)[C@@H](Cc2ccc(NC(=O)[C@H](Cc3ccccc3Cl)NC(=O)c3cnc4ccccc4c3)cc2)NC(=O)CC2(CCCC2)CC(=O)NCCCCCNC1=O [Compound 428] | < 100
36 | C[C@H]1NC(=O)[C@@H](Cc2ccc(NC(=O)[C@H](Cc3ccccc3Cl)NC(=O)c3cncc4ccccc34)cc2)NC(=O)CC2(CCCC2)CC(=O)NCCCCCNC1=O [Compound 429] | < 100
37 | CN(C)CCOc1ccc(CC(=O)N[C@@H](Cc2ccccc2Cl)C(=O)Nc2ccc(C[C@H]3NC(=O)CC4(CCCC4)CC(=O)NCCCCCNC(=O)[C@@H](Cc4ccccc4)NC3=O)cc2)cc1 [Compound 431] | < 100
38 | NCCCC[C@H]1NC(=O)[C@@H](Cc2ccc(NC(=O)[C@H](Cc3ccccc3Cl)NC(=O)Cc3ccccc3)cc2)NC(=O)CC2(CCCC2)CC(=O)NCCCCCNC1=O [Compound 432] | < 100
